≈ marks a conversion by molar mass, not a printed value. Where two headings read alike, the source gives them in different places.
What was measured:
in vivo = conditions: mouse, oral administration, ddY-strain male mice, 2 weeks
From the text: The result of oral administration to ddY-strain male mice (7 weeks age; body weight ca. 35 g; 3 mice per group) for 2 weeks was given.

S. flexneri = test: MIC by agar plate dilution method, S. flexneri; type: cell-based; conditions: Shigella flexneri, 18 hours, read-out: minimum inhibitory concentration (MIC)
Protocol: (§1) Test method: The MIC was measured by an agar plate dilution method in accordance with a standard method of Japan Chemotherapeutic Society (cf. Nippon Kagaku Ryoho Gakkaishi, 29(1), 76-79, 1981). Thus, the organisms incubated at 37° C. for 18 hours using sensitivity test broth (Nissei) was diluted to 10^6 CFU/ml using the same broth. […] As a control, enoxacin and ofloxacin were used in Tests 1 and 2, respectively.
(§2) The numbers of the inoculated bacteria were 10^6 in all cases and the unit of the MIC was micrograms/ml.

Proteus mirabilis 181 = test: MIC by agar plate dilution method, Proteus mirabilis 181; type: cell-based; conditions: Test 2; Proteus mirabilis 181; inoculum 10^6; 37° C., 18 hours; read-out: minimum inhibitory concentration (MIC)
Protocol: as §1, §2

K. pneumoniae K-1966 = test: MIC by agar plate dilution method, K. pneumoniae K-1966; type: cell-based; conditions: Klebsiella pneumoniae, read-out: minimum inhibitory concentration (MIC)
Protocol: as §1, §2

B. subtilis ATCC 6633 = test: MIC by agar plate dilution method, B. subtilis ATCC 6633; type: cell-based; conditions: Bacillus subtilis, ATCC6633, B. subtilis ATCC 6633, inoculum 10^6, 37° C., 18 hours, read-out: minimum inhibitory concentration (MIC)
Protocol: as §1, §2

S. marcescens IFO 3736 = test: MIC by agar plate dilution method, S. marcescens IFO 3736; type: cell-based; conditions: Serratia marcescens, IFO3736, inoculum 10^6, 37° C., 18 hours, read-out: minimum inhibitory concentration (MIC)
Protocol: as §1, §2

E. coli NIHJ JC-2 = test: MIC by agar plate dilution method, E. coli NIHJ JC-2; type: cell-based; conditions: Escherichia coli, read-out: minimum inhibitory concentration (MIC)
Protocol: as §1, §2

P. aeruginosa E-2 [1] = test: MIC by agar plate dilution method, P. aeruginosa E-2; type: cell-based; conditions: Pseudomonas aeruginosa, E2, P. aeruginosa E-2, inoculum 10^6, 37° C., 18 hours, read-out: minimum inhibitory concentration (MIC)
Protocol: as §1, §2

M. luteus ATCC 9341 = test: MIC by agar plate dilution method, M. luteus ATCC 9341; type: cell-based; conditions: Micrococcus luteus, ATCC9341, inoculum 10^6, 37° C., 18 hours, read-out: minimum inhibitory concentration (MIC)
Protocol: as §1, §2

S. epidermidis = test: MIC by agar plate dilution method, S. epidermidis; type: cell-based; conditions: Staphylococcus epidermidis, Test 2, inoculum 10^6, 37° C., 18 hours, read-out: minimum inhibitory concentration (MIC)
Protocol: as §1, §2

S. aureus 209-P JC = test: MIC by agar plate dilution method, S. aureus 209-P JC; type: cell-based; conditions: Staphylococcus aureus, S. aureus 209-P JC, inoculum 10^6, 37° C., 18 hours, read-out: minimum inhibitory concentration (MIC)
Protocol: as §1, §2

[2] = tested on: infections caused by Gram positive bacteria and Pseudomonas aeruginosa (chronic); conditions: background statement; cited from earlier work
A. calcoaceticus 54 = test: MIC by agar plate dilution method, A. calcoaceticus 54; type: cell-based; conditions: Acinetobacter calcoaceticus; Test 1; A. calcoaceticus 54; inoculum 10^6; 37° C., 18 hours; read-out: minimum inhibitory concentration (MIC)
Protocol: as §1, §2

P. vulgaris HX-19 = test: MIC by agar plate dilution method, P. vulgaris HX-19; type: cell-based; conditions: Proteus vulgaris, HX19, Test 1, inoculum 10^6, 37° C., 18 hours, read-out: minimum inhibitory concentration (MIC)
Protocol: as §1, §2

E. coli KC-14 [3] = test: Therapeutic effect on infection in mice, E. coli KC-14; type: in vivo, ddY-strain male mice; conditions: Escherichia coli, KC14, po, 168 h; E. coli KC-14, 5.1×10^4 CFU/mouse i.p.; drug orally once 2 hours after infection; survival after one week; read-out: ED50
Protocol: (§3) Test Method: Escherichia coli KC-14 and Psudomonas aeruginosa E-2 were suspended in 4% mucin and 0.25 ml of it was inoculated into peritoneal cavity of ddY-strain male mice (body weight about 20 g; 4 weeks age; 10 mice per group). The numbers of the inoculated bacteria were 5.1×10^4 CFU/mouse and 7.5×10^4 CFU/mouse for E. coli and P. aeruginosa, respectively. The drug was administered orally once 2 hours after the infection of the bacteria and, out of the survival rate after one week, the ED50 values were calculated by a Behrens-Karber method. As controls, ofloxacin and enoxacin were used.
(§4) Bacteria used for calculating ED50 were E. coli KC-14 for (1) and P. aeruginosa E-2 for (2). The compounds (1) to (7) of the present invention designated in Table 2 are as follows.

E. cloacae No. 1 = test: MIC by agar plate dilution method, E. cloacae No. 1; type: cell-based; conditions: Enterobacter cloacae; Test 1; E. cloacae No. 1; inoculum 10^6; 37° C., 18 hours; read-out: minimum inhibitory concentration (MIC)
Protocol: as §1, §2

P. aeruginosa E-2 [4] = test: Therapeutic effect on infection in mice, P. aeruginosa E-2; type: in vivo, ddY-strain male mice; conditions: Pseudomonas aeruginosa, E2, po, 168 h; P. aeruginosa E-2, 7.5×10^4 CFU/mouse i.p.; drug orally once 2 hours after infection; survival after one week; read-out: ED50
Protocol: as §3, §4

E. coli KC-14 [5] = test: MIC by agar plate dilution method, E. coli KC-14; type: cell-based; conditions: Escherichia coli, KC14; Test 1; E. coli KC-14; inoculum 10^6; 37° C., 18 hours; read-out: minimum inhibitory concentration (MIC)
Protocol: as §1, §2

S. aureus Smith = test: MIC by agar plate dilution method, S. aureus Smith; type: cell-based; conditions: Staphylococcus aureus; Test 1; S. aureus Smith; inoculum 10^6; 37° C., 18 hours; read-out: minimum inhibitory concentration (MIC)
Protocol: as §1, §2

[6] = K1966, Test 2, K. pneumoniae K-1966, inoculum 10^6, 37° C., 18 hours
[7] = NIHJJC2, Test 2, E. coli NIHJ JC-2, inoculum 10^6, 37° C., 18 hours

SMILES: CCOC(=O)c1c2n(c3cc(N4CCN(CC(C)=O)CC4)c(F)cc3c1=O)C(C)S2 (stereo not drawn) [Table 2 (5), Ethyl 7-(4-acetonyl-1-piperazinyl)-6-fluoro-1-methyl-4-oxo-4H-(1,3)thiazeto(3,2-a)quinoline-3-carboxylate]
- LD50 at 336 h (in vivo): ≥ 3000 mg/kg

SMILES: CC1Sc2c(C(=O)O)c(=O)c3cc(F)c(N4CCNCC4)cc3n21 (stereo not drawn) [Table 1 (13), 6-Fluoro-1-methyl-4-oxo-7-(1-piperazinyl)-4H-(1,3)thiazeto(3,2-a)quinoline-3-carboxylic acid]
- MIC (S. flexneri; Test 2, inoculum 10^6, 37° C.): 0.0125 µg/mL (≈ 0.0358 µM)
- MIC (Proteus mirabilis 181): 0.025 µg/mL (≈ 0.0716 µM)
- MIC (K. pneumoniae K-1966; K1966, 18 h): 0.0125 µg/mL (≈ 0.0358 µM)
- MIC (B. subtilis ATCC 6633; Test 2): 0.1 µg/mL (≈ 0.286 µM)
- MIC (S. marcescens IFO 3736; Test 2, S. Marcescens IFO 3736): 0.05 µg/mL (≈ 0.143 µM)
- MIC (E. coli NIHJ JC-2; NIHJJC2, 18 h): 0.0125 µg/mL (≈ 0.0358 µM)
- MIC (P. aeruginosa E-2 [1]; Test 2): 0.2 µg/mL (≈ 0.572 µM)
- MIC (M. luteus ATCC 9341; Test 2, M. luteus ATTC 9341): 1.56 µg/mL (≈ 4.46 µM)
- MIC (S. epidermidis): 3.13 µg/mL (≈ 8.96 µM)
- MIC (S. aureus 209-P JC; Test 2): 0.1 µg/mL (≈ 0.286 µM)

SMILES: CCn1cc(C(=O)O)c(=O)c2cc(F)c(N3CCNCC3)nc21 [Enoxacin, enoxacin, reference compound]
- MIC (S. flexneri; Test 1, inoculum 10^6, 37° C.): 0.1 µg/mL (≈ 0.312 µM)
- activity against infections caused by Gram positive bacteria and Pseudomonas aeruginosa (chronic) [2]: not active
- MIC (K. pneumoniae K-1966; K1966, Test 1, K. pneumoniae K-1966, inoculum 10^6, 37° C., 18 hours): 0.2 µg/mL (≈ 0.624 µM)
- MIC (B. subtilis ATCC 6633; Test 1): 0.2 µg/mL (≈ 0.624 µM)
- MIC (S. marcescens IFO 3736; Test 1, S. marcescens IFO 3736): 0.39 µg/mL (≈ 1.22 µM)
- MIC (E. coli NIHJ JC-2; NIHJJC2, Test 1, E. coli NIHJ JC-2, inoculum 10^6, 37° C., 18 hours): 0.2 µg/mL (≈ 0.624 µM)
- MIC (A. calcoaceticus 54): 1.56 µg/mL (≈ 4.87 µM)
- MIC (P. aeruginosa E-2 [1]; Test 1): 0.78 µg/mL (≈ 2.44 µM)
- MIC (P. vulgaris HX-19): 0.05 µg/mL (≈ 0.156 µM)
- ED50 (E. coli KC-14 [3]): 1.8 mg/kg
- MIC (E. cloacae No. 1): 0.1 µg/mL (≈ 0.312 µM)
- ED50 (P. aeruginosa E-2 [4]): 13.1 mg/kg
- MIC (M. luteus ATCC 9341; Test 1, M. luteus ATCC 9341): 25 µg/mL (≈ 78 µM)
- MIC (S. aureus 209-P JC; Test 1): 0.78 µg/mL (≈ 2.44 µM)
- MIC (E. coli KC-14 [5]): 0.1 µg/mL (≈ 0.312 µM)
- MIC (S. aureus Smith): 0.78 µg/mL (≈ 2.44 µM)

SMILES: O=C(O)c1c2n(c3cc(N4CCNCC4)c(F)cc3c1=O)C(c1ccc(F)cc1)S2 (stereo not drawn) [Table 1 (12), 6-Fluoro-1-(4-fluorophenyl)-4-oxo-7-(1-piperazinyl)-4H-(1,3)thiazeto(3,2-a)quinoline-3-carboxylic acid]
- MIC (S. flexneri; Test 2, inoculum 10^6, 37° C.): 0.025 µg/mL (≈ 0.0582 µM)
- MIC (Proteus mirabilis 181): 0.2 µg/mL (≈ 0.466 µM)
- MIC (K. pneumoniae K-1966; [6]): 0.0125 µg/mL (≈ 0.0291 µM)
- MIC (B. subtilis ATCC 6633; Test 2): 0.05 µg/mL (≈ 0.116 µM)
- MIC (S. marcescens IFO 3736; Test 2, S. Marcescens IFO 3736): 0.39 µg/mL (≈ 0.908 µM)
- MIC (E. coli NIHJ JC-2; [7]): 0.025 µg/mL (≈ 0.0582 µM)
- MIC (P. aeruginosa E-2 [1]; Test 2): 0.39 µg/mL (≈ 0.908 µM)
- MIC (M. luteus ATCC 9341; Test 2, M. luteus ATTC 9341): 1.56 µg/mL (≈ 3.63 µM)
- MIC (S. epidermidis): 0.39 µg/mL (≈ 0.908 µM)
- MIC (S. aureus 209-P JC; Test 2): 0.2 µg/mL (≈ 0.466 µM)

SMILES: CC1COc2c(N3CCN(C)CC3)c(F)cc3c(=O)c(C(=O)O)cn1c23 (racemic) [Ofloxacin, ofloxacin, reference compound]
- MIC (S. flexneri; Test 2, inoculum 10^6, 37° C.): 0.1 µg/mL (≈ 0.277 µM)
- activity against infections caused by Gram positive bacteria and Pseudomonas aeruginosa (chronic) [2]: not active
- MIC (Proteus mirabilis 181): 0.1 µg/mL (≈ 0.277 µM)
- MIC (K. pneumoniae K-1966; [6]): 0.1 µg/mL (≈ 0.277 µM)
- MIC (B. subtilis ATCC 6633; Test 2): 0.2 µg/mL (≈ 0.553 µM)
- MIC (S. marcescens IFO 3736; Test 2, S. Marcescens IFO 3736): 0.39 µg/mL (≈ 1.08 µM)
- MIC (E. coli NIHJ JC-2; [7]): 0.05 µg/mL (≈ 0.138 µM)
- MIC (P. aeruginosa E-2 [1]; Test 2): 1.56 µg/mL (≈ 4.32 µM)
- ED50 (E. coli KC-14 [3]): 0.8 mg/kg
- ED50 (P. aeruginosa E-2 [4]): 16 mg/kg
- MIC (M. luteus ATCC 9341; Test 2, M. luteus ATTC 9341): 3.13 µg/mL (≈ 8.66 µM)
- MIC (S. epidermidis): 1.56 µg/mL (≈ 4.32 µM)
- MIC (S. aureus 209-P JC; Test 2): 0.78 µg/mL (≈ 2.16 µM)

SMILES: O=C(O)c1c2n(c3cc(N4CCNCC4)c(F)cc3c1=O)C(c1ccccc1)S2 (stereo not drawn) [Table 1 (11), 6-Fluoro-4-oxo-1-phenyl-7-(1-piperazinyl)-4H-(1,3)thiazeto(3,2-a)quinoline-3-carboxylic acid]
- MIC (S. flexneri; Test 2, inoculum 10^6, 37° C.): 0.025 µg/mL (≈ 0.0608 µM)
- MIC (Proteus mirabilis 181): 0.05 µg/mL (≈ 0.122 µM)
- MIC (K. pneumoniae K-1966; [6]): 0.025 µg/mL (≈ 0.0608 µM)
- MIC (B. subtilis ATCC 6633; Test 2): 0.05 µg/mL (≈ 0.122 µM)
- MIC (S. marcescens IFO 3736; Test 2, S. Marcescens IFO 3736): 0.05 µg/mL (≈ 0.122 µM)
- MIC (E. coli NIHJ JC-2; [7]): 0.025 µg/mL (≈ 0.0608 µM)
- MIC (P. aeruginosa E-2 [1]; Test 2): 0.2 µg/mL (≈ 0.486 µM)
- MIC (M. luteus ATCC 9341; Test 2, M. luteus ATTC 9341): 3.13 µg/mL (≈ 7.61 µM)
- MIC (S. epidermidis): 1.56 µg/mL (≈ 3.79 µM)
- MIC (S. aureus 209-P JC; Test 2): 0.2 µg/mL (≈ 0.486 µM)
